Activity calls are given as the source filed them. No cut-off for these calls is given here.

The results in this text go back to ChEMBL document CHEMBL5050839, “Methods and compositions for treatment of cancer” (2021).

Common to all, as to assay type: functional, cell-based
Common to all, as to settings: for Activity: time 24-48 hrs

In one experiment the test system is BXPC-3. Nature of the experiment: Antiproliferative activity against human BXPC-3 cells after 24 to 48 hrs by Cell Titer-Glo luminiscent cell viability assay.
In the next experiment the test system is ASPC1. Put plainly: Antiproliferative activity against human ASPC1 cells after 24 to 48 hrs by Cell Titer-Glo luminiscent cell viability assay.
Another experiment has as its system MIA PaCa-2. Put plainly: Antiproliferative activity against human MIA PaCa-2 cells after 24 to 48 hrs by Cell Titer-Glo luminiscent cell viability assay.
The subject of a further experiment is PANC-1. Nature of the experiment: Antiproliferative activity against human PANC-1 cells after 24 to 48 hrs by Cell Titer-Glo luminiscent cell viability assay.

For `COc1ccc(-c2ccc3cc(C(=O)O)ccc3c2)cc1C12CC3CC(CC(C3)C1)C2`, the outcome in the experiment with BXPC-3, with ASPC1, in the experiment on MIA PaCa-2 and in the experiment on PANC-1 was Active.

Consider `CC1(C)O[C@H]2C[C@H]3[C@@H]4CCC5=CC(=O)C=C[C@]5(C)[C@H]4[C@@H](O)C[C@]3(C)[C@]2(C(=O)CO)O1`, for which the result in the experiment with BXPC-3, in the experiment with ASPC1, in the experiment on MIA PaCa-2 and in the experiment on PANC-1 was Active.

For the compound `COc1ccc(CCN2CCC(Nc3nc4ccccc4n3Cc3ccc(F)cc3)CC2)cc1` [ASTEMIZOLE], the IC50 in the experiment on BXPC-3 was determined as 3.7 µM; with ASPC1, 5.3 µM; with MIA PaCa-2, 1.3 µM; in the experiment with PANC-1 it was 1.8 µM.

On to `CCC1=C(C)CN(C(=O)NCCc2ccc(S(=O)(=O)NC(=O)N[C@H]3CC[C@H](C)CC3)cc2)C1=O`, for which the result with BXPC-3, in the experiment on ASPC1, in the experiment on MIA PaCa-2 and with PANC-1 was Active.

With `Cc1nc2n(c(=O)c1CCN1CCC(c3noc4cc(F)ccc34)CC1)CCCC2O` (stereo unspecified), the result in the experiment on BXPC-3, with ASPC1, with MIA PaCa-2 and with PANC-1 was Active.

With `O=C(O)c1ccc(NC(=O)[C@H](Cc2ccc(O)cc2)NC(=O)c2ccccc2)cc1`, the result with BXPC-3, in the experiment with ASPC1, with MIA PaCa-2 and with PANC-1 was Active.

For `CN1CCC(=C2c3ccccc3CC(=O)c3sccc32)CC1`, the outcome with BXPC-3, in the experiment on ASPC1, with MIA PaCa-2 and in the experiment with PANC-1 was Active.

For `C[C@]12CC[C@@H]3c4ccc(OS(=O)(=O)O)cc4CC[C@H]3[C@@H]1CCC2=O`, the outcome with BXPC-3, in the experiment with ASPC1, with MIA PaCa-2 and with PANC-1 was Active.

In the case of `Cc1nc2n(c(=O)c1CCN1CCC(c3noc4cc(F)ccc34)CC1)CCCC2` [RISPERIDONE], the IC50 in the experiment with BXPC-3 turned out to be 7.5 µM; in the experiment on ASPC1 it was 35.3 µM; with MIA PaCa-2, 10 µM; in the experiment with PANC-1, 27.6 µM.
